“Also recorded” adds a separate entry of the source. Where two headings read alike, the source gives them in different places.
Legend:
[1] = tested on: L. amazonensis axenic amastigotes; assay: alamarBlue viability / concentration-response assay, axenic amastigotes; assay type: cell-based, Leishmania amazonensis; details: 72 h, axenic amastigotes, read-out: EC50^72 h against L. amazonensis axenic amastigotes
Description: Leishmania amazonensis axenic amastigotes (100 μL, 2×10^6 cells/mL) were added to 96-multiwell plates containing 100 μL of amastigote culture medium with an appropriate compound dilution series. 0.1% DMSO (no drug) served as a positive control (100%), and 5 μM amphotericin B served as a negative growth control (0%). Only internal wells were used to minimize edge effects from evaporation. Axenic amastigotes were incubated at 32° C. with a compound/drug for 72 h prior to measurement. Similarly, the cytotoxicity of each compound was determined against RAW 264.7 cells and HepG2 cell lines, following 72 h incubation at 37° C. (promastigotes at 26° C.).
10% alamarBlue® (Thermo Fisher Scientific) was used to measure the growth of both parasite and mammalian cells. Conversion from a blue oxidized state to a pink reduced state was assessed visually at 6 hr. The fluorescence signal was measured with a BioTek Synergy H1 plate reader (530 nm excitation, 570 nm emission). For bioluminescence assays using L. amazonensisluc, relative luminescence units (RLU) were measured using Britelite Plus (PerkinElmer, USA). Luminescence produced by this luciferase reaction is proportional to the amount of luciferase-expressing, viable L. amazonensisluc. Following five-minute incubation at room temperature, the luminescence was measured with a BioTek Synergy H1 plate reader.
All experiments were conducted as three technical triplicates on the same plate, with at least three independent biological repeats of each plate performed. For all assays, percent growth was expressed as a proportion of the untreated (positive) control (i.e. 100%) and plotted against drug/compound concentration. The concentration was then log10 transformed and EC50 values were determined using nonlinear regression (sigmoidal dose-response/variable slope equation) in GraphPad Prism v5.0 (GraphPad Software, Inc., San Diego, CA).
To identify antileishmanial compounds, a microplate-based alamarBlue® assay was used to quickly triage the 400 drug-like compounds available in the MMV Pathogen Box collection. […] A three-step process was used to screen the Pathogen Box: 1) identify hits against axenic amastigotes, 2) confirm the inhibitory concentrations of these hits against axenic amastigotes, 3) evaluate hits for potency against intracellular parasites using fluorescence and bioluminescence-based intracellular assays. The MMV Pathogen Box resource was tested at two concentrations (5 μM and 1 μM, 72 h endpoint) on axenic amastigotes.
Hits were defined as compounds that, at a concentration of 1 μM, decreased the relative fluorescence intensity signal to ≤70% of that produced by parasites incubated in vehicle (0.06% DMSO) only (FIG. 9).

[2] = tested on: blood-stage Trypanosoma brucei; assay: CellTiter-Glo luminescent assay; assay type: cell-based
Description: The parasites were synchronized using sequential sorbitol lysis treatment, with experiments carried out at least one intra-erythrocytic cycle later. T. brucei single marker (SM) cells were maintained at log phase growth (<1.5×10^6 cells/mL) in HMI-19 media supplemented with 10% FBS (Gibco) and 2.5 μg/mL G418 (Life Technologies) at 37° C. and 5% CO2.
Compounds were tested against the blood-stage Trypanosoma brucei (48 hr endpoint) and intra-erythrocytic asexual stages Plasmodium falciparum (3D7) using CellTiter-Glo® luminescent and Malaria SYBR green I fluorescence (MSF) assays, respectively. Similar methodology will be used for future experiments.
MMV676477 was tested against several other parasites: the axenic amastigotes of Leishmania donovani and Leishmania tarentolae, blood-stage Plasmodium falciparum, and Trypanosoma brucei. The compound's activity was measured using alamarBlue®, Malaria SYBR green I fluorescence (MSF) and CellTiter-Glo® luminescent assays. […] In addition, MMV676477 has also been recently reported as having potent activity against Neospora caninum, Cryptosporidium parvum, Toxoplasma gondii, and Entamoeba histolytica.

CCc1c(C)nc(-n2nc(C)cc2NC(=O)c2ccccc2SC)[nH]c1=O [MMV676477, N-(1-(5-Ethyl-4-methyl-6-oxo-1,6-dihydropyrimidin-2-yl)-3-methyl-1H-pyrazol-5-yl)-2-(methylthio)benzamide]
EC50 [1]: 78 nM | EC50 ([1]; Leishmania amazonensis): 79 nM | activity against Trypanosoma brucei (in words) [2]: nanomolar-range cytocidal potency; also recorded: broad activity; also recorded: nanomolar concentrations

Reference: US20240139190A1, “NOVEL ANTIPARASITIC COMPOUNDS AND METHODS” (The Board of Regents of The University of Texas System, priority 2019, published 2024)
